Measurements reported in the supplement of paper PMC13207355.
Structures can show the parent of a compound that is named as a salt.

Experiments:
Conditions in all cases: exposure time: 72 h
[1] = tested on: E21 (patient-derived glioblastoma stem cells of mesenchymal subtype); test: surviving fraction (nuclei count normalised to DMSO); higher = more cells surviving (less toxic)
[2] = tested on: E13 (patient-derived glioblastoma stem cells of classical subtype); test: as above
[3] = tested on: FT3469 (normal neural stem cell line); test: as above
[4] = tested on: E34 (patient-derived glioblastoma stem cells of proneural subtype); test: as above
[5] = tested on: E28 (patient-derived glioblastoma stem cells of classical subtype); test: as above
[6] = tested on: E31 (patient-derived glioblastoma stem cells of proneural subtype); test: as above
[7] = tested on: E57 (patient-derived glioblastoma stem cells of mesenchymal subtype); test: as above
[8] = tested on: E21; test: phenotypic distance (Euclidean, principal components) from DMSO controls (arbitrary units); higher = stronger morphological change
[9] = tested on: E13; test: as above
[10] = tested on: FT3469; test: as above
[11] = tested on: E34; test: as above
[12] = tested on: E28; test: as above
[13] = tested on: E31; test: as above
[14] = tested on: E57; test: as above
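Wherever phenotypic distance (Euclidean, principal components) from DMSO controls is given: cell Painting imaging in 384-well plates, CellProfiler features reduced to at least 20 principal components, Euclidean distance versus same-plate DMSO vehicle wells (0.1% v/v), median over six images per well.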
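Wherever surviving fraction (nuclei count normalised to DMSO) is given: nuclei counted by high-content imaging of Hoechst-stained cells in laminin-coated 384-well plates, relative to 0.1% DMSO vehicle wells, with staurosporine as cell-death control.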

NCc1ccccc1CC(=O)N[C@@H]1C(=O)N2C(C(=O)O)=C(CSc3nnnn3CC(=O)O)CS[C@H]12 [Ceforanide]
Conditions	phenotypic distance	surviving fraction
[1], 4.1 nM	–	0.96
[1], 12.3 nM	–	1
[1], 37 nM	–	1
[1], 111.1 nM	–	0.945
[1], 333.3 nM	–	0.927
[1], 1000 nM	–	0.94
[1], 3000 nM	–	0.913
[2], 4.1 nM	–	0.857
[2], 12.3 nM	–	0.899
[2], 37 nM	–	0.892
[2], 111.1 nM	–	0.955
[2], 333.3 nM	–	0.967
[2], 1000 nM	–	0.991
[2], 3000 nM	–	0.821
[3], 4.1 nM	–	0.899
[3], 12.3 nM	–	0.944
[3], 37 nM	–	0.806
[3], 111.1 nM	–	1.05
[3], 333.3 nM	–	0.931
[3], 1000 nM	–	1.08
[3], 3000 nM	–	0.785
[4], 4.1 nM	–	1.07
[4], 12.3 nM	–	1.01
[4], 37 nM	–	1.2
[4], 111.1 nM	–	0.873
[4], 333.3 nM	–	1.1
[4], 1000 nM	–	0.901
[4], 3000 nM	–	0.86
[5], 4.1 nM	–	1.01
[5], 12.3 nM	–	0.94
[5], 37 nM	–	1.19
[5], 111.1 nM	–	0.907
[5], 333.3 nM	–	0.952
[5], 1000 nM	–	0.963
[5], 3000 nM	–	0.899
[6], 4.1 nM	–	0.969
[6], 12.3 nM	–	0.993
[6], 37 nM	–	0.944
[6], 111.1 nM	–	1.06
[6], 333.3 nM	–	0.801
[6], 1000 nM	–	0.895
[6], 3000 nM	–	1.03
[7], 4.1 nM	–	0.871
[7], 12.3 nM	–	0.985
[7], 37 nM	–	0.982
[7], 111.1 nM	–	0.995
[7], 333.3 nM	–	1
[7], 1000 nM	–	0.926
[7], 3000 nM	–	0.897
[8], 4.1 nM	0.452	–
[8], 12.3 nM	0.464	–
[8], 37 nM	0.533	–
[8], 111.1 nM	0.73	–
[8], 333.3 nM	0.545	–
[8], 1000 nM	0.643	–
[8], 3000 nM	0.896	–
[9], 4.1 nM	0.868	–
[9], 12.3 nM	0.834	–
[9], 37 nM	0.565	–
[9], 111.1 nM	2.99	–
[9], 333.3 nM	0.49	–
[9], 1000 nM	0.481	–
[9], 3000 nM	1.06	–
[10], 4.1 nM	0.788	–
[10], 12.3 nM	0.666	–
[10], 37 nM	0.745	–
[10], 111.1 nM	0.803	–
[10], 333.3 nM	0.916	–
[10], 1000 nM	0.851	–
[10], 3000 nM	1.28	–
[11], 4.1 nM	0.618	–
[11], 12.3 nM	0.456	–
[11], 37 nM	0.886	–
[11], 111.1 nM	0.834	–
[11], 333.3 nM	0.882	–
[11], 1000 nM	0.522	–
[11], 3000 nM	0.877	–
[12], 4.1 nM	0.755	–
[12], 12.3 nM	0.829	–
[12], 37 nM	0.872	–
[12], 111.1 nM	0.701	–
[12], 333.3 nM	0.858	–
[12], 1000 nM	1.54	–
[12], 3000 nM	1.07	–
[13], 4.1 nM	0.821	–
[13], 12.3 nM	0.599	–
[13], 37 nM	0.687	–
[13], 111.1 nM	0.68	–
[13], 333.3 nM	0.855	–
[13], 1000 nM	0.963	–
[13], 3000 nM	0.779	–
[14], 4.1 nM	0.735	–
[14], 12.3 nM	0.47	–
[14], 37 nM	0.604	–
[14], 111.1 nM	0.425	–
[14], 333.3 nM	0.594	–
[14], 1000 nM	0.792	–
[14], 3000 nM	0.948	–

CCN(CC)CCCC(C)Nc1c2ccc(Cl)cc2nc2ccc(OC)cc12 (stereo unspecified) [Quinacrine dihydrochloride hydrate]
Conditions	phenotypic distance	surviving fraction
[1], 4.11523 nM	–	0.908
[1], 12.34567901 nM	–	0.974
[1], 37.037 nM	–	1
[1], 111.1111111 nM	–	0.955
[1], 333.333 nM	–	1.05
[1], 1000 nM	–	1.09
[1], 3000 nM	–	0.71
[2], 4.11523 nM	–	0.934
[2], 12.34567901 nM	–	0.901
[2], 37.037 nM	–	0.789
[2], 111.1111111 nM	–	0.985
[2], 333.333 nM	–	0.993
[2], 1000 nM	–	0.911
[2], 3000 nM	–	0.709
[3], 4.11523 nM	–	1.04
[3], 12.34567901 nM	–	1.01
[3], 37.037 nM	–	0.948
[3], 111.1111111 nM	–	1.1
[3], 333.333 nM	–	1.02
[3], 1000 nM	–	1.1
[3], 3000 nM	–	0.826
[4], 4.11523 nM	–	0.882
[4], 12.34567901 nM	–	0.943
[4], 37.037 nM	–	0.902
[4], 111.1111111 nM	–	0.99
[4], 333.333 nM	–	1.21
[4], 1000 nM	–	0.998
[4], 3000 nM	–	0.806
[5], 4.11523 nM	–	1.09
[5], 12.34567901 nM	–	1.03
[5], 37.037 nM	–	0.987
[5], 111.1111111 nM	–	1.11
[5], 333.333 nM	–	1.05
[5], 1000 nM	–	1.13
[5], 3000 nM	–	0.69
[6], 4.11523 nM	–	0.883
[6], 12.34567901 nM	–	1.02
[6], 37.037 nM	–	1.06
[6], 111.1111111 nM	–	1.14
[6], 333.333 nM	–	0.914
[6], 1000 nM	–	1.16
[6], 3000 nM	–	0.516
[7], 4.11523 nM	–	0.945
[7], 12.34567901 nM	–	1.05
[7], 37.037 nM	–	0.97
[7], 111.1111111 nM	–	1.13
[7], 333.333 nM	–	1.04
[7], 1000 nM	–	1.1
[7], 3000 nM	–	1.04
[8], 4.11523 nM	0.539	–
[8], 12.34567901 nM	0.4	–
[8], 37.037 nM	0.451	–
[8], 111.1111111 nM	0.853	–
[8], 333.333 nM	0.649	–
[8], 1000 nM	1.12	–
[8], 3000 nM	1.66	–
[9], 4.11523 nM	0.636	–
[9], 12.34567901 nM	0.492	–
[9], 37.037 nM	0.777	–
[9], 111.1111111 nM	0.595	–
[9], 333.333 nM	2.11	–
[9], 1000 nM	3.45	–
[9], 3000 nM	1.42	–
[10], 4.11523 nM	0.574	–
[10], 12.34567901 nM	0.546	–
[10], 37.037 nM	0.759	–
[10], 111.1111111 nM	0.562	–
[10], 333.333 nM	0.547	–
[10], 1000 nM	0.651	–
[10], 3000 nM	2.59	–
[11], 4.11523 nM	0.829	–
[11], 12.34567901 nM	1.53	–
[11], 37.037 nM	0.456	–
[11], 111.1111111 nM	0.849	–
[11], 333.333 nM	1.06	–
[11], 1000 nM	1.21	–
[11], 3000 nM	0.812	–
[12], 4.11523 nM	0.665	–
[12], 12.34567901 nM	0.451	–
[12], 37.037 nM	0.457	–
[12], 111.1111111 nM	0.704	–
[12], 333.333 nM	0.722	–
[12], 1000 nM	0.455	–
[12], 3000 nM	1.98	–
[13], 4.11523 nM	1.19	–
[13], 12.34567901 nM	0.694	–
[13], 37.037 nM	0.513	–
[13], 111.1111111 nM	0.784	–
[13], 333.333 nM	0.524	–
[13], 1000 nM	0.913	–
[13], 3000 nM	2.12	–
[14], 4.11523 nM	1.09	–
[14], 12.34567901 nM	1.14	–
[14], 37.037 nM	0.424	–
[14], 111.1111111 nM	0.923	–
[14], 333.333 nM	0.838	–
[14], 1000 nM	1.18	–
[14], 3000 nM	2.11	–
